Values joined by “and” are separate entries in the source; they are usually repeats but may differ in a detail not shown here. Equal entries are not always repeated. Blank lines part the entries; values can stand above or below the molecule they belong to.
Tests used:
human STING (WT) = human STING (WT) (Homo sapiens, UniProt Q86WV6); test: ISRE reporter assay with STING co-transfection in HEK293T cells; assay type: cell-based; details: hSTING, Figure S1f
[1] = biological target: hSTING(1–153)–mSTING(153–378) chimera (Homo sapiens, UniProt Q86WV6, A215V/A300E/A302V/A313V/A318T/A350V/D237N/D297E/D320G/E174G/E362R/E369D/G230I/G344N/H185L/H232R/I244V/K224M/K347M/K370Q/L189M/L202F/L222R/L247I/L333I/L346P/M214V/M357L/Q196R/Q276K/Q306R/R191S/R253P/S275A/S321N/S345A/S353P/T181M/T229N/T256V/T354P/T356V/V194G/V258I/V343M/V351A/Y182F/Y186H/Y274D); test: as above; assay type: cell-based, human/mouse; details: for ISRE reporter activity, mean: h(1-153)/m(153-378)STING, Figure S1f
STING(TMEM173) = STING(TMEM173) (Homo sapiens, UniProt Q86WV6, G230A/R293Q/R71H); test: photoaffinity labeling and competition chemoproteomics in THP-1 cells; assay type: binding
SYNE2 Nesprin-2 = SYNE2 Nesprin-2 (Homo sapiens, UniProt Q8WXH0); test: as above; assay type: binding
[2] = biological target: SLC25A13 Calcium-binding mitochondrial carrier protein Aralar2 (Homo sapiens, UniProt Q9UJS0); test: as above
[3] = biological target: TXNDC12 Thioredoxin domain-containing protein 12 (Homo sapiens, UniProt O95881); test: as above; assay type: binding
RABL6 Rab-like protein 6 = RABL6 Rab-like protein 6 (Homo sapiens, UniProt Q3YEC7); test: as above; assay type: binding
human STING = human STING (Homo sapiens, UniProt Q86WV6, G230A/R293Q/R71H); test: THP1-Dual ISRE-Luc reporter gene assay (primary screen and dose response); details: for THP1-Dual reporter activity: single replicates (n=2); for AC50: THP1-Dual ISRE-Luc Assay
BMDM, WT mSTING = test: IP10 induction in bone marrow-derived macrophages; assay type: cell-based, mouse; details: 50μM, n=1
[4] = test system: BMDM, human STING knock-in; test: IP10 induction in bone marrow-derived macrophages; assay type: cell-based, mouse; details: 50μM, n=1
BMDM, mSTING Indel/Indel = test: IP10 induction in bone marrow-derived macrophages; assay type: cell-based, mouse; details: 50μM, n=1

hSTING(1–153)–mSTING(153–378) chimera, sequence (Q86WV6 with tags, fused parts or gaps with the stated changes): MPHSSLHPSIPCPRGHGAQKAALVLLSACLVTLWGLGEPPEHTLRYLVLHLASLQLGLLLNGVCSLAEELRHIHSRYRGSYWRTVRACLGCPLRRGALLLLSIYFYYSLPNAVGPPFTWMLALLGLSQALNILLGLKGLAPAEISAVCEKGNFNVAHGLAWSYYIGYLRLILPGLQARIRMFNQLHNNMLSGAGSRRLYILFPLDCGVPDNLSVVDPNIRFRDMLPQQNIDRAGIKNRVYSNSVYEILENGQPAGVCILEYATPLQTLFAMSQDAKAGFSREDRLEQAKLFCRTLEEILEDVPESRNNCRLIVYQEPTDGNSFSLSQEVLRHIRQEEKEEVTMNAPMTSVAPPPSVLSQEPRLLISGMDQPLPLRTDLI
STING(TMEM173), sequence (Q86WV6 whole entry R71H/G230A/R293Q): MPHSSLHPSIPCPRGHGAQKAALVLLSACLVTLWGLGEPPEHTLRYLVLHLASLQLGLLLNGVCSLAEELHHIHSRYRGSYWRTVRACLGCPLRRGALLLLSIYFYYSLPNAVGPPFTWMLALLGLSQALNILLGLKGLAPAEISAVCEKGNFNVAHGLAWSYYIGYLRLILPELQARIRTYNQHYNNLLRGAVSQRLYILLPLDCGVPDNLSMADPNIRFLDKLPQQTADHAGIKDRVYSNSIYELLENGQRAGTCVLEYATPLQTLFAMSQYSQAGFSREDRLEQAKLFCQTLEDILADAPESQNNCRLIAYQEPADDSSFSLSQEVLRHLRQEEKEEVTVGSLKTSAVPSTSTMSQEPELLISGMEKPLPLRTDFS
human STING, sequence (Q86WV6 whole entry R71H/G230A/R293Q): as above
human STING (WT), sequence (Q86WV6 whole entry): as the sequence (Q86WV6 whole entry R71H/G230A/R293Q) above, with H71R, A230G, Q293R counted along it
TXNDC12 Thioredoxin domain-containing protein 12, sequence (O95881 27-172): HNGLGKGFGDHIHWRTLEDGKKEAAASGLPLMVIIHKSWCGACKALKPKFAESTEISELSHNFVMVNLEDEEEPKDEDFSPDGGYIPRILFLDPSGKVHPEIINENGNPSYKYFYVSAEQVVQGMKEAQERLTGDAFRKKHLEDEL
RABL6 Rab-like protein 6, sequence (Q3YEC7 whole entry): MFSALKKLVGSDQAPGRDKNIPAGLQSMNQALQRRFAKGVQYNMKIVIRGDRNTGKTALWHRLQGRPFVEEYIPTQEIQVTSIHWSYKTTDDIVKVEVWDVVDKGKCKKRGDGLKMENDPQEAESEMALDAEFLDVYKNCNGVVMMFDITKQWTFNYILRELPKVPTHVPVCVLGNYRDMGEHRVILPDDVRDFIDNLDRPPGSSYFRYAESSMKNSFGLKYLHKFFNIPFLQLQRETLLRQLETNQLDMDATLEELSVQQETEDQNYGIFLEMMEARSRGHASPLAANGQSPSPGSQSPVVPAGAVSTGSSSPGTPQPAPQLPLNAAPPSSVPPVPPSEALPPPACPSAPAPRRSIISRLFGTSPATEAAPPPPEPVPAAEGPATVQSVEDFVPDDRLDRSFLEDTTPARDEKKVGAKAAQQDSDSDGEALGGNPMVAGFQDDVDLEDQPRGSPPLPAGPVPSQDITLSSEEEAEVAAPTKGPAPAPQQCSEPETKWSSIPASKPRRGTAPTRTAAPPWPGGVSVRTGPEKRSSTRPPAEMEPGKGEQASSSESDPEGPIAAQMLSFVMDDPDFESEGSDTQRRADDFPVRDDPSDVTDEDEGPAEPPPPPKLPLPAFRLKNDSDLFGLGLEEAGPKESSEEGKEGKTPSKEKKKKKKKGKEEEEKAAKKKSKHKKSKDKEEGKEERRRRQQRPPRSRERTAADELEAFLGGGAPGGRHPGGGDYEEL
SLC25A13 Calcium-binding mitochondrial carrier protein Aralar2, sequence (Q9UJS0 whole entry, the tested form may be a part): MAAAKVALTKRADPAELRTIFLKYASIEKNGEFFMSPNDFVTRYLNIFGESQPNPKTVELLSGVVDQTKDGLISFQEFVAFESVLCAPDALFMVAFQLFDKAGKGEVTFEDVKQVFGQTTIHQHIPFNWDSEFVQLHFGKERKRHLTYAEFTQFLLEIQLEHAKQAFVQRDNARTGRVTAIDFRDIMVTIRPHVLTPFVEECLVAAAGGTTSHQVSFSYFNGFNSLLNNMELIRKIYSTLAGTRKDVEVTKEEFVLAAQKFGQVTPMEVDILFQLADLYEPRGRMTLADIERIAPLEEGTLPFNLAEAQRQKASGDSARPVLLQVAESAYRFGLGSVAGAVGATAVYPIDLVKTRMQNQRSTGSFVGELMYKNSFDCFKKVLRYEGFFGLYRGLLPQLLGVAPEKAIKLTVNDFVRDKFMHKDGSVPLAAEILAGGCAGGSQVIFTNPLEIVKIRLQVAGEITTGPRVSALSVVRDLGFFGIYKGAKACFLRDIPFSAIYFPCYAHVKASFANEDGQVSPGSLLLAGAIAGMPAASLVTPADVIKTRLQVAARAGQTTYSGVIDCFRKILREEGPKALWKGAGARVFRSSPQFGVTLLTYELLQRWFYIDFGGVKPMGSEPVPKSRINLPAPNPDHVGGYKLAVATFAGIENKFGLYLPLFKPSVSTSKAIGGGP

Compound: Cc1ccc2c(=O)c3cccc(CC(=O)O)c3oc2c1C [DMXAA, 5,6-dimethylxanthenone-4-acetic acid, reference compound]
- ISRE reporter activity, mean (human STING (WT); Log[μM] 0): 1.3
- ISRE reporter activity, mean (human STING (WT); Log[μM] 0.3): 1.4
- ISRE reporter activity, mean (human STING (WT); Log[μM] 0.6): 1.2
- ISRE reporter activity, mean (human STING (WT); Log[μM] 0.9): 1.3
- ISRE reporter activity, mean (human STING (WT); Log[μM] 1.2): 1
- ISRE reporter activity, mean (human STING (WT); Log[μM] 1.5): 1.6
- ISRE reporter activity, mean (human STING (WT); Log[μM] 1.8): 1.2
- ISRE reporter activity, mean (human STING (WT); Log[μM] 2.1): 1.4
- ISRE reporter activity, mean (human STING (WT); Log[μM] 2.4): 1.5
- ISRE reporter activity, mean (human STING (WT); Log[μM] 2.7): 1.9
- ISRE reporter activity, mean ([1]; Log[μM] 0): 0.7
- ISRE reporter activity, mean ([1]; Log[μM] 0.3): 0.7
- ISRE reporter activity, mean ([1]; Log[μM] 0.6): 0.7
- ISRE reporter activity, mean ([1]; Log[μM] 0.9): 0.9
- ISRE reporter activity, mean ([1]; Log[μM] 1.2): 9.4
- ISRE reporter activity, mean ([1]; Log[μM] 1.5): 82.5
- ISRE reporter activity, mean ([1]; Log[μM] 1.8): 101.1
- ISRE reporter activity, mean ([1]; Log[μM] 2.1): 106.7
- ISRE reporter activity, mean ([1]; Log[μM] 2.4): 109.5
- STING activation in words ([1]; hSTING TMD–mSTING LBD chimera): responded fully

- enrichment of STING(TMEM173) over no probe control (STING(TMEM173); 1 μM probe, pull-down): over 2 fold
- Abundance Ratio (log2): (DMSO) / (NJC652) (STING(TMEM173); TMEM173): -1.82
- Abundance Ratio (log2): (DMSO) / (NJC652) (SYNE2 Nesprin-2): 0.26
- Abundance Ratio (log2): (DMSO) / (NJC652) [2]: -0.21
- Abundance Ratio (log2): (DMSO) / (NJC652) [3]: -0.18
- Abundance Ratio (log2): (DMSO) / (NJC652) (RABL6 Rab-like protein 6): 0.01
- THP1-Dual reporter activity (human STING; 97.7 nM): -53.887 and -41.218
- THP1-Dual reporter activity (human STING; 195 nM): -52.59 and -42.841
- THP1-Dual reporter activity (human STING; 391 nM): -38.43 and -29.964
- THP1-Dual reporter activity (human STING; 781 nM): -39.736 and -25.431
- THP1-Dual reporter activity (human STING; 1563 nM): -32.277 and -48.463
- THP1-Dual reporter activity (human STING; 3125 nM): -20.873 and -28.245
- THP1-Dual reporter activity (human STING; 6250 nM): 1623.13 and 1111.27
- THP1-Dual reporter activity (human STING; 12500 nM): 4114.59 and 3953.84
- THP1-Dual reporter activity (human STING; 25000 nM): 2243.38 and 2653.78
- AC50 (human STING): 6.9 µM
Compound: C#CCCC1(CCC(=O)NCCCS(=O)(=O)NC(=O)c2ccc(NCc3ccc(C4(C(C)(C)C)OCC(C)(C)CO4)cc3)c(OC)c2)N=N1 [NVS-STG4]

- competition of NVS-STG4 labeling in words (STING(TMEM173); 20 μM competitor, 1 μM NVS-STG4): competed
- THP1-Dual reporter activity (human STING; 97.7 nM): -1.082 and 21.604
- THP1-Dual reporter activity (human STING; 195 nM): -3.144 and -12.05
- THP1-Dual reporter activity (human STING; 391 nM): -15.339 and 25.944
- THP1-Dual reporter activity (human STING; 781 nM): 62.36 and 63.63
- THP1-Dual reporter activity (human STING; 1563 nM): 1502.2 and 1735.82
- THP1-Dual reporter activity (human STING; 3125 nM): 6139.8 and 5609.9
- THP1-Dual reporter activity (human STING; 6250 nM): 8825.5 and 7956
- THP1-Dual reporter activity (human STING; 12500 nM): 8733.31 and 7877.19
- AC50 (human STING): 2.7 µM
Compound: CNc1ccccc1CS(=O)(=O)NC(=O)c1ccc(NCc2ccc(C3(C(C)(C)C)OCC(C)(C)CO3)cc2)c(OC)c1 [NVS-STG3]

Compound: Nc1nc2c(ncn2[C@@H]2O[C@@H]3COP(=O)(O)O[C@H]4[C@@H](O)[C@H](n5cnc6c(N)ncnc65)O[C@@H]4COP(=O)(O)O[C@@H]2[C@@H]3O)c(=O)[nH]1 [cGAMP, 2’,3’-cGMP-AMP, reference compound]
- IP10 (BMDM, WT mSTING): 3440.25 pg/mL
- IP10 ([4]; BMDM hSTING+/+): 2945 pg/mL
- IP10 ([4]; BMDM hSTING+/indel): 1331.5 pg/mL
- IP10 (BMDM, mSTING Indel/Indel): 0 pg/mL
